pEC50: −log10 of the molar value.
Experiments:
[1] = tested on: mouse pancreatic cancer cell Panc 2 cells, or human pancreatic cancer Panc 1 cells; assay: Cell cycle progression (G0/G1 arrest), PI staining, flow cytometry; assay type: cell-based; details: 48 h treatment
Description: The effect of example compounds on cell cycle progression was analyzed. The tumor cells, mouse pancreatic cancer cell Panc 2 cells, or human pancreatic cancer Panc 1 cells, were treated with the individual compounds at concentrations that were efficacious for mitochondrial uncoupling for 48 h, whereas the control group was treated with vehicle DMSO. Cells were then fixed with ice-cold 70% ethanol on ice for 30 minutes. After that, 5 μl of propidium iodide (PI) (Sigma, P 4170, 1 mg/ml) solution and 50 μl of RNAse A (Sigma, R-4875) solutions were added to the fixed cells, which were then kept for 30 minutes in the dark at room temperature. The cell cycle profile of the cells was analyzed by flow cytometry. […] Table IV below summarizes the activity of other example compounds on inducing G0/G1 cell cycle arrest.

[2] = tested on: Cancer cells; assay: Clonogenicity of cancer cells, colony counting; assay type: cell-based; details: 200 cells per well, 10 days
Description: The impact of example compounds on clonogenicity was analyzed. Cancer cells were plated in 6-well plates at 200 cells per well. Cells were treated with individual compounds at various concentrations. Cells were maintained with changes of the medium plus compounds for 10 days. The colonies were then fixed in 1:3 Acetic acid—Methanol solution for 5 minutes, stained with 0.02% crystal violet for 20 minutes and counted.

[3] = tested on: mouse myoblast C2C12 cells; assay: Oxygen consumption rate (OCR) assay with Seahorse XF96 or XF24, mitochondrial uncoupling; assay type: cell-based; details: 10% fetal bovine serum, in the presence of oligomycin 2.5 μM, read-out: Cmin (minimal concentration to induce ATP synthase-independent OCR increase)
Excerpt: By definition, mitochondrial uncoupling is the decoupling of mitochondrial electron transport chain activity (mitochondrial oxidation) from ATP synthesis by mitochondrial ATP synthase. Technically, mitochondrial uncoupling activity is defined by the ability of a chemical compound to induce oxygen consumption of cells or isolated mitochondria in the presence of a mitochondrial ATP synthase inhibitor such as oligomycin. Accordingly, we determined mitochondrial uncoupling activity by oxygen consumption rate (OCR) assay with a Seahorse XF96 or a Seahorse XF24 instrument following the vendor's instruction, using mouse myoblast C2C12 cells growing in medium containing 10% fetal bovine serum. […] The minimal concentration (Cmin) of each compound under which OCR is induced in the presence of oligomycin, was determined.

[4] = tested on: Human colon cancer HCT116 cell line and human lung cancer cell line H1299; assay: Cancer cell growth inhibition, NCI protocol, SRB staining; assay type: cell-based; details: 48 h incubation, HCT116 and H1299 cells, read-out: GI50, 50% growth inhibition activity
Description: The effect of example compounds on cancer cell growth was evaluated. The cell growth inhibition assays were performed using a protocol standardized by National Cancer Institute (NCI) for evaluating anti-cancer drugs (https://dtp.cancer.gov/discovery_development/nci-60/methodology.htm). Human colon cancer HCT116 cell line and human lung cancer cell line H1299 were used for the assays. The human tumor cells were inoculated into 96 well microtiter plates. After cell inoculation, the microtiter plates were incubated for cell growth for 24 h prior to addition of compounds. After 24 h, two plates of each cell line were fixed in situ with TCA, to represent a measurement of the cell population for each cell line at the time of compound addition (Tz). Test compounds were solubilized in dimethyl sulfoxide, At the time of test compound addition, five 10-fold or ½ log serial dilutions were made to provide a total of five test compound concentrations plus control. Aliquots of 100 μl of these different test compound dilutions were added to the appropriate microtiter wells already containing 100 μl of medium, resulting in the required final test compound concentrations. Following test compound addition, the plates were incubated for an additional 48 h. The assay was terminated by the addition of cold TCA, Cells were fixed in situ with 50 μl of cold 50% (w/v) TCA (final concentration, 10% TCA), washed five times with tap water and air dried. Sulforhodamine B (SRB) solution (100 ul) at 0.4% (w/v) in 1% acetic acid was added to each well, and plates were incubated for 10 minutes at room temperature. After staining, unbound dye was removed by washing five times with 1% acetic acid and the plates were air dried. […] Using the seven absorbance measurements [time zero, (Tz), control growth, (C), and test growth in the presence of compound at the five concentration levels (Ti)], the percentage growth was calculated at each of the test compound concentrations levels.

[5] = tested on: NIH-3T3 cells, or HepG2 cells; assay: Mitochondrial membrane potential assay, TMRE staining; assay type: cell-based; details: 2 h; two hours treatment, TMRE 100 nM; read-out: EC50, mitochondrial membrane potential reduction (TMRE staining reduced to about 50%)
Description: Mitochondrial uncoupling may also lead to a reduction of mitochondrial membrane potential. We performed mitochondrial membrane potential assay using TMRE (tetramethylrhodamine ethyl ester) staining method with cultured mammalian cells, the NIH-3T3 cells, or HepG2 cells. Cells were seeded onto 6-well plates and cultured in DMEM medium supplemented with 10% fetal bovine serum and 2 mM glutamine. Cells were allowed to grow to logarithmic growth phase prior to experiments. The cells were treated with each individual compound at various concentrations for two hours, followed by staining with TMRE at final concentration of 100 nM for 15 minutes. The cells were then washed once with PBS, and examined under fluorescence microscopy. Cells treated with various concentrations of niclosamide ethanolamine were used as positive control. Reduction of mitochondrial TMRE staining was estimated as a quantification of mitochondrial uncoupling activity. […] The following table (Table II) summarizes the activity of individual compounds in reducing mitochondrial membrane potential in cultured mammalian cells.

[6] = tested on: HFD-induced diabetic mouse model; assay: High-fat diet (HFD)-induced fatty liver and diabetic mouse model; assay type: in vivo; details: HFD containing 600 ppm compound
Excerpt: To test the efficacy of compounds in treating type 2 diabetes in vivo, we used Compound 28 as an example, and determined its effect in reducing blood glucose, reducing blood insulin concentration, improving insulin sensitivity and reducing fatty liver in a clinically relevant mouse model, the HFD-induced fatty liver and diabetic model. C57B6/J male mice were fed HFD (60% calorie from fat) for 4 months, starting at age of 2 months, to induce high blood glucose, high blood insulin, and insulin tolerance symptoms of type 2 diabetes as well as fatty liver. The mice then either continued with HFD or with HFD containing 600 ppm Compound 28. Blood glucose, blood insulin levels were measured and glucose tolerance assay was performed to measure insulin sensitivity. The mice were sacrificed and the effect of Compound 28 on fatty liver development was evaluated by comparing the liver weight.

[7] = tested on: Panc 2 cells injected into the spleen of NOD-scid mice; assay: Hepatic metastasis of pancreatic cancer mouse model; assay type: in vivo; details: chow containing 750 ppm compound
Description: The in vivo anti-cancer efficacy of an example compound, Compound 28, was examined using a well-established hepatic metastasis of pancreatic cancer mouse model. The mouse pancreatic cancer cells, Panc 2 cells (0.25 million cells), were injected into the spleen of immune compromised NOD-scid mice. The mice were randomized to two groups (n=6 each group), one group was fed normal chow, the second group was fed chow containing 750 ppm Compound 28. Three weeks later, mice were sacrificed and the hepatic metastasis of the pancreatic cancer was observed (FIGS. 5A-5B) and quantified (FIGS. 6A-6B) in control and Compound 28 treated mice.

Structure (SMILES)	effective concentration that can arrest cell cycle at G0/G1 phase [1]	IC95, Concentration that reduces clonogenicity by 95% [2]	minimal effective concentration [3]	GI50 [4]	pEC50 [5]	also measured
Cc1cc(Cl)cc(C(=O)Nc2nc3ccc(C(F)(F)F)cc3s2)c1O [Compound 1, 5-Chloro-2-hydroxy-3-methyl-N-(6-(trifluoromethyl)benzo[d]thiazol-2-yl)benzamide]	*** (*** <10 μM)	*** (*** <10 μM)	–	–	–	–
O=C(Nc1nc2c(F)cc(F)cc2s1)c1cc(Cl)ccc1O [Compound 23, 5-Chloro-N-(4,6-difluorobenzo[d]thiazol-2-yl)-2-hydroxybenzamide]	–	–	< 10 µM	< 10 µM	–	–
O=C(Nc1nc2c(C(F)(F)F)cc(F)cc2s1)c1cc(Cl)ccc1O [Compound 24, 5-Chloro-N-(6-fluoro-4-(trifluoromethyl)benzo[d]thiazol-2-yl)-2-hydroxybenzamide]	–	–	< 10 µM	< 10 µM	> 5.00	–
CCc1cc(Cl)cc(C(=O)Nc2nc3ccc(C(F)(F)F)cc3s2)c1O [Compound 27, 5-Chloro-3-ethyl-2-hydroxy-N-(6-(trifluoromethyl)benzo[d]thiazol-2-yl)benzamide]	*** (*** <10 μM)	*** (*** <10 μM)	< 10 µM	< 10 µM	> 5.00	–
Cc1cc(Cl)cc(C(=O)Nc2nc3ccc(C(F)(F)F)cc3s2)c1O [Compound 28, 5-Chloro-2-hydroxy-3-methyl-N-(6-(trifluoromethyl)benzo[d]thiazol-2-yl)benzamide ethanolamine]	–	–	< 10 µM	< 10 µM	–	blood glucose concentration ([6]; C57B6/J male mice): markedly reduced; blood insulin concentration ([6]; C57B6/J male mice): markedly reduced; fatty liver weight caused by high fat diet ([6]; C57B6/J male mice): reduced fatty liver weight; insulin sensitivity ([6]; C57B6/J male mice): improves insulin sensitivity; plasma concentration [6]: at an efficacious concentration that uncouples mitochondria; blood plasma concentrations [7]: in the range of efficacious concentration for uncoupling mitochondria; hepatic tumor metastasis ([7]; three weeks): little or no hepatic tumor metastasis; metastatic tumor volume ([7]; three weeks): dramatically reduced; number of metastatic tumor nodules ([7]; three weeks): dramatically reduced
Cc1cc(Cl)cc(C(=O)Nc2nc3c(C(F)(F)F)cccc3s2)c1O [Compound 31, 5-Chloro-2-hydroxy-3-methyl-N-(4-(trifluoromethyl)benzo[d]thiazol-2-yl)benzamide]	–	–	< 10 µM	< 10 µM	–	–
CC(C)c1cc(Cl)cc(C(=O)Nc2nc3ccc(C(F)(F)F)cc3s2)c1O [Compound 38, 5-Chloro-2-hydroxy-3-isopropyl-N-(6-(trifluoromethyl)benzo[d]thiazol-2-yl)benzamide]	*** (*** <10 μM)	*** (*** <10 μM)	< 10 µM	< 10 µM	> 5.00	–
Cc1cc(Cl)cc(C(=O)Nc2nc3c(F)cc(F)cc3s2)c1O [Compound 40, 5-Chloro-N-(4,6-difluorobenzo[d]thiazol-2-yl)-2-hydroxy-3-methylbenzamide]	–	–	< 10 µM	< 10 µM	> 5.00	–

From US10227315B2, “Mitochondrial uncouplers for treatment of metabolic diseases and cancer” (RUTGERS, THE STATE UNIVERSITY OF NEW JERSEY, priority 2016, dated 2019)
